Reference: the NIST ThermoML archive (doi:10.1016/j.jct.2016.03.034)

Test: xn = mol fraction of the nth substance listed
Settings: 100 kPa, Liquid; for viscosity: Capillary tube (Ostwald / Ubbelohde) method; for mass density: Vibrating tube method

O=C1CCCO1 [γ-butyrolactone] + CCCCCC[n+]1ccn(C)c1.O=S(=O)([N-]S(=O)(=O)C(F)(F)F)C(F)(F)F
Settings	mass density [kg/m3]	viscosity [mPa·s]
293.15 K, x2 = 0	1129.49	1.86
293.15 K, x2 = 0.0507	1176	2.63
293.15 K, x2 = 0.0999	1209.89	3.68
293.15 K, x2 = 0.1544	1238.99	5.32
293.15 K, x2 = 0.1999	1258.54	6.49
293.15 K, x2 = 0.3004	1291.11	10.57
293.15 K, x2 = 0.404	1314.91	–
293.15 K, x2 = 0.5044	1332.2	23.96
293.15 K, x2 = 0.596	1344.4	–
293.15 K, x2 = 0.7027	1355.85	44.32
293.15 K, x2 = 0.8182	1365.51	–
293.15 K, x2 = 0.8924	1370.62	70.24
298.15 K, x2 = 0	1124.59	1.71
298.15 K, x2 = 0.0507	1171.09	2.43
298.15 K, x2 = 0.0999	1204.99	3.32
298.15 K, x2 = 0.1544	1234.06	4.67
298.15 K, x2 = 0.1999	1253.61	5.73
298.15 K, x2 = 0.3004	1286.27	9.16
298.15 K, x2 = 0.404	1310.08	–
298.15 K, x2 = 0.5044	1327.28	19.96
298.15 K, x2 = 0.596	1339.47	–
298.15 K, x2 = 0.7027	1350.79	35.8
298.15 K, x2 = 0.8182	1360.52	–
298.15 K, x2 = 0.8924	1365.62	55.4
303.15 K, x2 = 0	1119.68	1.58
303.15 K, x2 = 0.0507	1166.32	2.18
303.15 K, x2 = 0.0999	1200.4	3
303.15 K, x2 = 0.1544	1229.53	4.08
303.15 K, x2 = 0.1999	1249.21	5.07
303.15 K, x2 = 0.3004	1281.91	7.91
303.15 K, x2 = 0.404	1305.79	–
303.15 K, x2 = 0.5044	1323.05	16.88
303.15 K, x2 = 0.596	1335.25	–
303.15 K, x2 = 0.7027	1346.64	29.15
303.15 K, x2 = 0.8182	1356.39	–
303.15 K, x2 = 0.8924	1361.5	44.29
308.15 K, x2 = 0	1114.78	1.47
308.15 K, x2 = 0.0507	1161.53	1.97
308.15 K, x2 = 0.0999	1195.65	2.74
308.15 K, x2 = 0.1544	1224.8	3.69
308.15 K, x2 = 0.1999	1244.56	4.55
308.15 K, x2 = 0.3004	1277.26	7
308.15 K, x2 = 0.404	1301.16	–
308.15 K, x2 = 0.5044	1318.46	14.47
308.15 K, x2 = 0.596	1330.67	–
308.15 K, x2 = 0.7027	1342.09	25.57
308.15 K, x2 = 0.8182	1351.83	–
308.15 K, x2 = 0.8924	1356.94	36.71
313.15 K, x2 = 0	1109.87	1.37
313.15 K, x2 = 0.0507	1156.54	1.84
313.15 K, x2 = 0.0999	1190.58	2.52
313.15 K, x2 = 0.1544	1219.69	3.34
313.15 K, x2 = 0.1999	1239.41	4.11
313.15 K, x2 = 0.3004	1272	6.23
313.15 K, x2 = 0.404	1295.78	–
313.15 K, x2 = 0.5044	1313.05	12.29
313.15 K, x2 = 0.596	1325.23	–
313.15 K, x2 = 0.7027	1336.62	20.49
313.15 K, x2 = 0.8182	1346.3	–
313.15 K, x2 = 0.8924	1351.37	30.2
318.15 K, x2 = 0	1104.96	1.28
318.15 K, x2 = 0.0507	1151.65	1.7
318.15 K, x2 = 0.0999	1185.71	2.31
318.15 K, x2 = 0.1544	1214.89	3.03
318.15 K, x2 = 0.1999	1234.59	3.7
318.15 K, x2 = 0.3004	1267.16	5.72
318.15 K, x2 = 0.404	1290.94	–
318.15 K, x2 = 0.5044	1308.19	10.74
318.15 K, x2 = 0.596	1320.36	–
318.15 K, x2 = 0.7027	1331.75	17.5
318.15 K, x2 = 0.8182	1341.42	–
318.15 K, x2 = 0.8924	1346.5	25.41
323.15 K, x2 = 0	1100.05	1.2
323.15 K, x2 = 0.0507	1147.03	1.58
323.15 K, x2 = 0.0999	1181.36	2.14
323.15 K, x2 = 0.1544	1210.78	2.69
323.15 K, x2 = 0.1999	1230.51	3.38
323.15 K, x2 = 0.3004	1263.32	5.21
323.15 K, x2 = 0.404	1287.31	–
323.15 K, x2 = 0.5044	1304.67	9.36
323.15 K, x2 = 0.596	1316.95	–
323.15 K, x2 = 0.7027	1328.43	15
323.15 K, x2 = 0.8182	1338.19	–
323.15 K, x2 = 0.8924	1343.3	21.39
